The record followed here is ChEMBL document CHEMBL1201862, “PubChem BioAssay data set” (2004).

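Interpolation was linear, between the two tested concentrations surrounding the appropriate level; five concentrations were tested over 48 hours in 96-well plates. GI50 is the concentration that inhibits growth by half.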 Calls of active or inactive are those of the source. Rule as the data show it: active = GI50 up to about 1.1 µM and inactive = higher.

Holding throughout (assay): inhibition of tumour cell growth, NCI panel, 48 h
Assay [1] relates to OVCAR-3.
Assay [2] concerns OVCAR-5.
For assay [3], the system named is NCI-H23.
The subject of assay [4] is HOP-62.
The test system of assay [5] is SNB-19.
Assay [6] relates to HT-29.
Assay [7] relates to NCI-H226.
Assay [8] has as its system OVCAR-8.
Assay [9] has as its system OVCAR-4.
For assay [10], the system named is HCT-15.
The subject of assay [11] is UACC-257.
The test system of assay [12] is IGROV-1.
Assay [13] concerns TK-10.
Assay [14] has as its system M19-MEL.
The test system of assay [15] is SF-539.
Assay [16] has as its system K562.
Assay [17] deals with SK-MEL-2.
Assay [18] concerns PC-3.
Assay [19] deals with MDA-MB-231.
The subject of assay [20] is Hs-578T.

For `CCC1CN2CCc3cc(OC)c(OC)cc3C2CC1CC1c2cc(OC)c(OC)cc2CCN1C(=O)C1CCCN1C(=O)OCc1ccccc1` (stereo not given), the GI50 was 16.2 µM (inactive) in [1]; 18.1 µM (inactive) in assay [2]; 16.3 µM (inactive) in assay [3]; 16.2 µM (inactive) in assay [4]; 24.3 µM (inactive) in [5]; 14.1 µM (inactive) in assay [6]. Besides, the GI50 was 16.1 µM (inactive) in assay [7]; 17.1 µM (inactive) in assay [8]; 12.2 µM (inactive) in assay [9]; 16.2 µM in [10]; 16.9 µM (inactive) in assay [11]; 15.9 µM (inactive) in [12]. The GI50 in assay [13] is 19.5 µM (inactive); in [14], 15.5 µM (inactive); in [15] it was 18.7 µM (inactive); in assay [16], 16.2 µM (inactive); in [17] it was 17.2 µM (inactive).
Take `CCOC(=O)CN1C(=O)c2cc([N+](=O)[O-])cc3cc([N+](=O)[O-])cc(c23)C1=O`: the GI50 in assay [1] is 23.2 µM (inactive); in assay [2], > 100 µM (inactive); in assay [3] it was 99.3 µM (inactive); in assay [18] it was > 100 µM (inactive); in assay [19], 45.4 µM (inactive); in assay [4], > 100 µM (inactive). In addition, the GI50 in assay [5] is > 83.4 µM (inactive); in assay [6] it was 34.7 µM (inactive); in assay [7] it was 45.4 µM (inactive); in assay [8], 27.9 µM (inactive); in assay [9], > 100 µM (inactive); in assay [10], 17.3 µM. In addition, the GI50 is 73.8 µM (inactive) in assay [11]; > 66.1 µM (inactive) in assay [12]; > 100 µM (inactive) in [13]; > 100 µM (inactive) in assay [20]; 30.1 µM (inactive) in assay [14]; 20 µM (inactive) in assay [15]. Also, the GI50 is 5.13 µM (inactive) in assay [16] and 22.5 µM (inactive) in assay [17].
For the compound `CCOc1ccccc1NC(=O)C(=O)CC(=O)c1sc(Nc2nnc(-c3ccc(Cl)c(Cl)c3)o2)nc1C`, the GI50 in assay [1] was 77.8 µM (inactive); in assay [2], > 100 µM (inactive); in assay [3], > 100 µM (inactive); in assay [4], > 100 µM (inactive); in assay [5], > 100 µM (inactive); in assay [6] it was > 100 µM (inactive). The GI50 is > 100 µM (inactive) in assay [7]; > 100 µM (inactive) in assay [8]; > 100 µM (inactive) in assay [9]; above 100 µM in assay [10]; 98.9 µM (inactive) in assay [11]; > 100 µM (inactive) in assay [12]. Besides, the GI50 in assay [13], in assay [14], in assay [15], in assay [16] and in assay [17] was > 100 µM (inactive) in each case.
`O=C1c2ccccc2C2(O)c3cc4ccccc4cc3OC12O` (stereo not given): the GI50 was 53.6 µM (inactive) in assay [1]; > 100 µM (inactive) in assay [2]; 55.6 µM (inactive) in assay [3]; 83.8 µM (inactive) in assay [4]; 31.2 µM (inactive) in assay [5]; > 100 µM (inactive) in [6]. The GI50 was 42.4 µM (inactive) in [7]; 58.1 µM (inactive) in [8]; 84.7 µM (inactive) in assay [9]; 53.2 µM in assay [10]; 30 µM (inactive) in assay [11]; 85.7 µM (inactive) in assay [12]. The GI50 in assay [13] is > 100 µM (inactive); in [14] it was 47.2 µM (inactive); in assay [15], > 100 µM (inactive); in assay [16], 46 µM (inactive); in assay [17], 47.3 µM (inactive).
On to `CC(=O)NN1C(=O)C(Cc2ccccc2)c2ccccc21` (stereo not given), for which the GI50 in assay [1], in assay [2], in assay [3], in [4], in [5] and in assay [6] was > 100 µM (inactive) in each case. Besides, the GI50 is > 100 µM (inactive) in assay [7]; > 100 µM (inactive) in assay [8]; > 100 µM (inactive) in assay [9]; above 100 µM in [10]; > 100 µM (inactive) in [11]; > 100 µM (inactive) in assay [12]. The GI50 in [13], in assay [14], in assay [15], in [16] and in [17] was > 100 µM (inactive) throughout.
Regarding `COc1ccc(OC)c(NC(=O)C(=O)CC(=O)c2sc(-n3nc(-c4ccccc4)cc3-c3ccccc3)nc2C)c1`, the GI50 in assay [1], in assay [2], in assay [3], in assay [4], in [5] and in assay [6] was > 100 µM (inactive) throughout. Further, the GI50 in [7] was > 100 µM (inactive); in [8] it was > 100 µM (inactive); in assay [9], > 100 µM (inactive); in assay [10], above 100 µM; in assay [11], > 100 µM (inactive); in [12], > 100 µM (inactive). In addition, the GI50 in assay [13], in assay [14], in assay [15], in [16] and in [17] was > 100 µM (inactive) throughout.
Regarding `N/C(=N\O)N/N=C\c1c2ccccc2c(Cl)c2ccccc12`, the GI50 in assay [1] was 3.47 µM (inactive); in assay [2], 3.05 µM (inactive); in assay [3], 5.04 µM (inactive); in assay [4] it was 10.5 µM (inactive); in [5] it was 11.9 µM (inactive); in [6], 3.78 µM (inactive). For the same compound, the GI50 in [7] was 2.13 µM (inactive); in assay [8], 4.08 µM (inactive); in assay [9], 3.78 µM (inactive); in assay [10] it was 5.82 µM; in assay [11], 1.42 µM (inactive); in assay [12] it was 3.38 µM (inactive). For the same compound, the GI50 in assay [13] was 11.8 µM (inactive); in [14], 6.61 µM (inactive); in assay [15], 9.62 µM (inactive); in assay [16], 3.72 µM (inactive); in assay [17] it was 10.5 µM (inactive).
In the case of `CC1(C2COC(=O)C2)SCCCS1` (stereo not given), the GI50 in [1], in [3], in assay [4], in [5], in assay [6] and in [7] was > 100 µM (inactive) each time. The GI50 in [8] is > 100 µM (inactive); in assay [9], > 100 µM (inactive); in assay [10] it was above 100 µM; in [11], > 100 µM (inactive); in assay [12], > 100 µM (inactive); in assay [13] it was > 100 µM (inactive). Besides, the GI50 in [14], in [15] and in assay [17] was > 100 µM (inactive) throughout.
With `N#C/C(=C\c1ccc2[nH]ccc2c1)C(=O)NCCCCNC(=O)/C(C#N)=C/c1ccc2[nH]ccc2c1`, the GI50 was > 31.6 µM (inactive) in [1]; > 31.6 µM (inactive) in [2]; > 31.6 µM (inactive) in [3]; > 10 µM (inactive) in assay [18]; > 10 µM (inactive) in [19]; > 31.6 µM (inactive) in assay [4]. Further, the GI50 was > 31.6 µM (inactive) in [5]; > 31.6 µM (inactive) in assay [6]; > 31.6 µM (inactive) in assay [7]; > 31.6 µM (inactive) in [8]; > 31.6 µM (inactive) in [9]; above 31.6 µM in assay [10]. Also, the GI50 in [11] was > 31.6 µM (inactive); in [12] it was > 31.6 µM (inactive); in assay [13], > 31.6 µM (inactive); in [20], > 10 µM (inactive); in [14] it was > 100 µM (inactive); in [15] it was > 31.6 µM (inactive). Also, the GI50 in assay [16] and in assay [17] was > 31.6 µM (inactive) each time.
As for `CC(C)(C)c1ccc2c(c1)S(=O)(=O)Nc1ccccc1NS(=O)(=O)c1cc(C(C)(C)C)ccc1OCCOCCOCCO2`, the GI50 in assay [1], in [2], in assay [3], in [4], in assay [5] and in assay [6] was > 100 µM (inactive) each time. The GI50 in assay [7] was > 100 µM (inactive); in [8], 70 µM (inactive); in assay [9], 20.9 µM (inactive); in assay [10], above 100 µM; in [11], > 100 µM (inactive); in assay [12] it was > 100 µM (inactive). The GI50 in assay [13] is > 100 µM (inactive); in assay [14], > 100 µM (inactive); in assay [15], 40 µM (inactive); in assay [16], > 100 µM (inactive); in assay [17] it was > 100 µM (inactive).
With `CCSC(SCC)c1cc2c(cc1Br)OCO2`, the GI50 in assay [1] is 22.9 µM (inactive); in assay [2] it was 27.2 µM (inactive); in assay [3] it was 26.7 µM (inactive); in assay [4], 60.3 µM (inactive); in [5], 58.9 µM (inactive); in [6], 16.8 µM (inactive). For the same compound, the GI50 in assay [7] was 24.2 µM (inactive); in assay [8], 31.3 µM (inactive); in [9], 57.8 µM (inactive); in assay [10], 9.64 µM; in assay [12], 55.8 µM (inactive); in assay [13], 44.7 µM (inactive). The GI50 in assay [14] was 19.1 µM (inactive); in assay [15], 16.1 µM (inactive); in [16] it was 3.77 µM (inactive); in assay [17], 18.9 µM (inactive).
